Values quoted from earlier work, collected in KR20140130881A, “보리코나졸을 함유하는 안정한 주사용 조성물” (동아에스티 주식회사, priority 2013, dated 2014).
Converted amounts (≈) assume the structure as drawn.

Structure (SMILES): C[C@@H](c1ncncc1F)[C@](O)(Cn1cncn1)c1ccc(F)cc1F [보리코나졸, (2R,3S)-2-(2,4-다이플루오로페닐)-3-(5-플루오로피리미딘-4-일)-1-(1H-1,2,4-트리아졸-1-일)부탄-2-올]
- aqueous solubility (pH 3, acidic solution): 200 µg/mL (≈ 573 µM)
- solubility in water (water): 700 µg/mL (≈ 2000 µM)
